In patent US9040547B2, “Pyrrolopyrimidine and purine derivatives” (PFIZER INC., priority 2011, dated 2015):
Where a name gives a salt, the structure may show the parent alone.

Experiments:
Assay type in all cases: cell-based
[1] = target: EGFR L858R+T790M (Homo sapiens, UniProt P00533, L858R/T790M); test: pEGFR Y1068 ELISA assay, NIH3T3/EGFR_L858R+T790M cells; conditions: 3T3 cell line, 2 hrs compound treatment; read-out: pEGFRY1068 ELISA3T3T790M—L858R IC50;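 note: sandwich ELISA of EGFR phosphorylated at Tyr1068 in lysates of stably transfected NIH/3T3 cells, 11-point threefold dilution series run in duplicate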
[2] = target: EGFR L858R (Homo sapiens, UniProt P00533, L858R); test: pEGFR Y1068 ELISA assay, NIH3T3/EGFR_L858R cells; conditions: 3T3 cell line, 2 hrs compound treatment; read-out: pEGFRY1068 ELISA3T3 L858R IC50;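 note: sandwich ELISA of phospho-EGFR Tyr1068 in lysates of stably transfected NIH/3T3 pools after 2 h compound exposure at 37 °C, 11-point threefold dilution series run in duplicate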
[3] = target: T1, EGFR wildtype, endogenous (Homo sapiens, UniProt P00533); test: pEGFR Y1068 ELISA assay, A549 cells; conditions: full serum media, stimulated 10 min with EGF (40 ng/mL), read-out: pEGFRY1068 ELISAA549 IC50;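 note: sandwich ELISA of phospho-EGFR Tyr1068 in cell lysates, cells exposed to compound for 2 h before EGF stimulation, 11-point threefold dilution series run in duplicate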
T1 construct: A549 (EGFR wildtype, endogenous); host or cells: A549

[4] = target: EGFR E746-A750 deletion (Homo sapiens, UniProt P00533, DEL746-750); test: pEGFR Y1068 ELISA assay, NIH3T3/EGFR_E746-A750 deletion cells; conditions: 3T3 Del cells, 2 hrs compound treatment; read-out: ELISA7E 3T3 Del IC50;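 note: sandwich ELISA on cell lysates detecting phospho-EGFR at Tyr1068, compounds run as 11-point threefold dilution series in duplicate, IC50 from inhibition of this phosphorylation signal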
[5] = test system: NIH3T3/EGFR_L858R; test: Cell proliferation assay (CellTiter-Glo), NIH3T3/EGFR_L858R; conditions: Mus musculus, NIH3T3, 120 h, 3T3 cell line, three to five days of compound treatment, read-out: 3T3 L858R IC50
Method: (§1) Cell proliferation was measured using the CellTiter-Glo® Luminescent Cell Viability Assay. The assay involves the addition of a single reagent (CellTiter-Glo® Reagent) directly to cells cultured in serum-supplemented medium. The assay uses this one-step addition to induce cell lysis and generate a luminescent signal proportional to the amount of ATP present which is directly proportional to the number of metabolically active cells present in culture. The following cell lines were evaluated in this assay: NIH3T3/EGFR_L858R, NIH3T3/EGFR_E746-A750_deletion, NIH3T3/EGFR L858R+T790M, NIH3T3/EGFR_E746-A750_deletion+T790M, PC-9, PC9-DRH, NCI-H1975, and NCI-H3255. NIH/3T3 parental cells, NCI-H1975, and NCI-H3255 were purchased from the American Type Culture Collection (Manassas, Va.), and PC-9 cells were obtained from Japan. All cells were cultured according to recommendations. NIH/3T3 cells were grown in DMEM (Invitrogen, Carlsbad, Calif.) supplemented with 10% newborn calf serum (Invitrogen), and NIH3T3/EGFR mutant cells were grown in complete media with 5 μg/mL puromycin (Invitrogen). PC-9, NCI-H1975, and NCI-H3255 were grown in RPMI (Invitrogen, Carlsbad, Calif.) supplemented with 10% FBS (Sigma, St Louis, Mo.), and PC9-DRH cells were grown in complete media with 2 uM PF-00299804. Plasmids (pLPCX) with various EGFR constructs were made by GenScript (Piscataway, N.J.), and stable pools of NIH/3T3 cells expressing these constructs were made at Pfizer La Jolla. PC9-DRH cells were generated at Pfizer La Jolla by exposing cells to increasing concentrations of PF-00299804. Cells were plated in complete culture media (3000-5000 cells/well, 50 μl/well) on the bottom of white clear-bottom tissue culture treated microtiter plates (#3610, Corning Inc, Corning, N.Y.) and allowed to adhere overnight at 37° C., 5% CO2. The following day, compound dilution plates were prepared in 96 well clear V-bottom 0.5 mL polypropylene block plates (#3956, Corning, Inc). All cell lines were not evaluated for each compound. Each compound evaluated was prepared as a DMSO stock solution (10 mM). Compounds were tested in duplicate on each plate, with an 11-point serial dilution curve (1:3 dilution). Compound treatment (50 μl) was added from the compound dilution plate to the cell plate. The highest compound concentration was 1 or 10 μM (final), with a 0.3% final DMSO (#D-5879, Sigma, St Louis, Mo.) concentration. Plates were then incubated at 37° C., 5% CO2. After three to five days of compound treatment, CellTiter-Glo® Reagent (#G7573, Promega, Madison, Wis.) was prepared in one of two ways. If thawing a frozen aliquot of CellTiter-Glo® Reagent, the aliquot was thawed and equilibrated to room temperature prior to use while keeping it protected from light. Alternatively, new bottles of CellTiter-Glo® Buffer and CellTiter-Glo® Substrate were thawed and equilibrated to room temperature prior to use. CellTiter-Glo® Buffer (100 mL) was transferred into the amber bottle containing CellTiter-Glo® Substrate to reconstitute the lyophilized enzyme/substrate mixture, forming the CellTiter-Glo® Reagent. The reconstituted reagent was mixed by gently inverting the contents to obtain a homogeneous solution, and went into solution easily in less than one minute. Any unused reconstituted CellTiter-Glo® Reagent was immediately aliquoted and frozen at −20° C., protected from light. Cell plates were equilibrated at room temperature for approximately 30 minutes. An equivolume amount of CellTiter-Glo® Reagent (100 μL) was added to each well. Plates were mixed for two minutes on an orbital shaker to induce cell lysis, and then allowed to incubate at room temperature for 10 minutes to stabilize the luminescent signal. Luminescence was recorded using the PerkinElmer EnVision Excite Multilabel Reader used for endpoint reading for Luminescence detection (Waltham, Mass.). Data were analyzed using a four-parameter fit in Microsoft Excel. […]

[6] = test system: NIH3T3/EGFR_E746-A750_deletion; test: Cell proliferation assay (CellTiter-Glo), NIH3T3/EGFR_E746-A750_deletion; conditions: Mus musculus, NIH3T3, 120 h, 3T3 cell line, three to five days of compound treatment, read-out: 3T3 del IC50
Method: as §1

[7] = test system: NIH3T3/EGFR L858R+T790M; test: Cell proliferation assay (CellTiter-Glo), NIH3T3/EGFR L858R+T790M; conditions: Mus musculus, NIH3T3, 120 h, 3T3 cell line, three to five days of compound treatment, read-out: 3T3 L858R_T790M IC50
[8] = test system: NIH3T3/EGFR_E746-A750_deletion+T790M; test: Cell proliferation assay (CellTiter-Glo), NIH3T3/EGFR_E746-A750_deletion+T790M; conditions: Mus musculus, NIH3T3, 120 h, 3T3 cell line, three to five days of compound treatment, read-out: 3T3 del_T790M IC50
Method: as §1

T1 sequence (P00533 25-1210): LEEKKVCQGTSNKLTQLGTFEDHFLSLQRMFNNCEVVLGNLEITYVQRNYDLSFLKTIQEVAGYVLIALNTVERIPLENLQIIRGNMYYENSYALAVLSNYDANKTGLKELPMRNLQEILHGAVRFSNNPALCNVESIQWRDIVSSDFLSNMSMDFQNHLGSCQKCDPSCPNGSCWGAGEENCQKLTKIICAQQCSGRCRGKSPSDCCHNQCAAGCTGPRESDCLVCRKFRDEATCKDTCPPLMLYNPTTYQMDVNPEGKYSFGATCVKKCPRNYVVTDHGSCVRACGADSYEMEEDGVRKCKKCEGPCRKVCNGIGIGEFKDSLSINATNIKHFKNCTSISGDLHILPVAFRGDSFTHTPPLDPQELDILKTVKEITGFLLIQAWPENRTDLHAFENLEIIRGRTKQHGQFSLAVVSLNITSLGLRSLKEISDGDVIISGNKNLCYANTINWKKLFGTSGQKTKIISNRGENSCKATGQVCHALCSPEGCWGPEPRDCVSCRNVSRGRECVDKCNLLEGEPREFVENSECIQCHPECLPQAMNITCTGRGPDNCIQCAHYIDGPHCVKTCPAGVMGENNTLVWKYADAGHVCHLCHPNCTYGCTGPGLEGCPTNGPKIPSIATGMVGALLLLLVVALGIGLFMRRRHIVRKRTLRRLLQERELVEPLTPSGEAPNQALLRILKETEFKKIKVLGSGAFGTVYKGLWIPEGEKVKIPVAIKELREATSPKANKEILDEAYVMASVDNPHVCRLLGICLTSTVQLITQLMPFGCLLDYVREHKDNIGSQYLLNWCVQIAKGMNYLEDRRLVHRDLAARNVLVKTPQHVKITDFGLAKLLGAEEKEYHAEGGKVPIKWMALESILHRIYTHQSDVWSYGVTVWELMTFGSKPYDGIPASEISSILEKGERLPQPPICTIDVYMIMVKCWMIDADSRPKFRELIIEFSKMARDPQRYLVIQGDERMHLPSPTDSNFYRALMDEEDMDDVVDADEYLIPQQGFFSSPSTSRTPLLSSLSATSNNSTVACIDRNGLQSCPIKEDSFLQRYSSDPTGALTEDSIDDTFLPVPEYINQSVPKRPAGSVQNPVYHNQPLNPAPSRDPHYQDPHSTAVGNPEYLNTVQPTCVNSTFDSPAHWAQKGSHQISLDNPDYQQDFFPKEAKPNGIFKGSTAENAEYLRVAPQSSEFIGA
EGFR L858R, sequence (P00533 25-1210 L858R): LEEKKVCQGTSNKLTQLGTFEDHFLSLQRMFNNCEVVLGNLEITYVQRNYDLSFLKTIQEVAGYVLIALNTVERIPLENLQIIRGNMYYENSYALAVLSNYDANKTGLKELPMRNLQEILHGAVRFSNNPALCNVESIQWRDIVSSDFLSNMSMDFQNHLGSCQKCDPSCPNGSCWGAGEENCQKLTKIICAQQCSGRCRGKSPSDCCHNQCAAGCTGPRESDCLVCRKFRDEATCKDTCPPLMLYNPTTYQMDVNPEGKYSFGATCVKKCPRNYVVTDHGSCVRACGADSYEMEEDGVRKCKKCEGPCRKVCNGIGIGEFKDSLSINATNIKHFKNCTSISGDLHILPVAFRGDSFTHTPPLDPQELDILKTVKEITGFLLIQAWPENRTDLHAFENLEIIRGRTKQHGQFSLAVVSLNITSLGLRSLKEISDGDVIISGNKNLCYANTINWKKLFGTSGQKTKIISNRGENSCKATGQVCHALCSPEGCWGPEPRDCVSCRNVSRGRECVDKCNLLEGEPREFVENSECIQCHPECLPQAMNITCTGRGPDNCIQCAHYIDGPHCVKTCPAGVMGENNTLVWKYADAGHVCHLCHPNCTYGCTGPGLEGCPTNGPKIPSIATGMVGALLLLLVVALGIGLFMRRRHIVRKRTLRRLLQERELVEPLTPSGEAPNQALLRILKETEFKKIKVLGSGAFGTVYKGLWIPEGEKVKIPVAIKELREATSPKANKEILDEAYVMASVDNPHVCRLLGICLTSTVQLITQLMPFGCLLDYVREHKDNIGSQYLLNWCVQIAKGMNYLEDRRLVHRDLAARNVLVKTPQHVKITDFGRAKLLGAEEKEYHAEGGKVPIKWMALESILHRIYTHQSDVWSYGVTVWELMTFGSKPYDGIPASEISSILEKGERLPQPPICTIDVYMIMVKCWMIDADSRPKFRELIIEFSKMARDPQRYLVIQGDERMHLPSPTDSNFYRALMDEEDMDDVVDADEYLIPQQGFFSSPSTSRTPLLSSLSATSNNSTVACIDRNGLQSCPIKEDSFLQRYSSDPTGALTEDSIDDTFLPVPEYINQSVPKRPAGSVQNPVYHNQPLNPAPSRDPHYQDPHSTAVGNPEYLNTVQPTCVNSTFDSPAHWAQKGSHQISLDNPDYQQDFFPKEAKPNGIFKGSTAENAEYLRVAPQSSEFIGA
EGFR E746-A750 deletion, sequence (P00533 with tags, fused parts or gaps DEL746-750): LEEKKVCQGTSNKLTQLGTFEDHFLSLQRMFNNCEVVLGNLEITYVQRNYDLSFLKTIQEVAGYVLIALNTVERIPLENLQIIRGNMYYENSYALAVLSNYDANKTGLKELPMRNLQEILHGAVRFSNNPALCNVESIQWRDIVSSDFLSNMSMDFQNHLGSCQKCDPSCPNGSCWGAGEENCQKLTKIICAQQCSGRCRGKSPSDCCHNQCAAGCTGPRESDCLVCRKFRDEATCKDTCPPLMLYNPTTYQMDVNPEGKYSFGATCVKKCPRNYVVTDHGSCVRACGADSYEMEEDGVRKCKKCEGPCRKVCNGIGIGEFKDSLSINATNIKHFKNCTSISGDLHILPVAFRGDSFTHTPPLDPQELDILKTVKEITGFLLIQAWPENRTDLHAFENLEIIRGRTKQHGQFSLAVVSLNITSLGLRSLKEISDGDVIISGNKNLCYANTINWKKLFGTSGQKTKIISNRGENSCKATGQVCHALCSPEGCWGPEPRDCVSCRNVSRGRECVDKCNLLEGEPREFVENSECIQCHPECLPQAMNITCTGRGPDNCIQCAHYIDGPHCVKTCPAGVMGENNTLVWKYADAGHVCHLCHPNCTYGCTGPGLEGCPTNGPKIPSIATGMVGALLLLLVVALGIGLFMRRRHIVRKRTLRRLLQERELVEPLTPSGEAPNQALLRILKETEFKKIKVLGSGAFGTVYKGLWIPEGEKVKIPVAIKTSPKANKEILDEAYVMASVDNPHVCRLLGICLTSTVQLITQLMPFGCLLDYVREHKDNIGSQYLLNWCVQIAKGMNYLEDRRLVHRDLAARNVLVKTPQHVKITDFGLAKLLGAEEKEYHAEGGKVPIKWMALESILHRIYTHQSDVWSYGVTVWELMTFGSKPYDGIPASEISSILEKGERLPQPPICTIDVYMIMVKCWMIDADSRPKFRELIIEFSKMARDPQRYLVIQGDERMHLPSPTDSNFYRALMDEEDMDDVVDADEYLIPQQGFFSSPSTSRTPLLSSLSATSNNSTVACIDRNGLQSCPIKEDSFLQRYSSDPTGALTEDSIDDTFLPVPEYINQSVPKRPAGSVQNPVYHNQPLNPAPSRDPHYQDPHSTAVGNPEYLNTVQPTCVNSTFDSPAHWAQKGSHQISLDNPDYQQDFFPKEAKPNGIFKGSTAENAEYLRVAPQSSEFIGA
EGFR L858R+T790M, sequence (P00533 25-1210 T790M/L858R): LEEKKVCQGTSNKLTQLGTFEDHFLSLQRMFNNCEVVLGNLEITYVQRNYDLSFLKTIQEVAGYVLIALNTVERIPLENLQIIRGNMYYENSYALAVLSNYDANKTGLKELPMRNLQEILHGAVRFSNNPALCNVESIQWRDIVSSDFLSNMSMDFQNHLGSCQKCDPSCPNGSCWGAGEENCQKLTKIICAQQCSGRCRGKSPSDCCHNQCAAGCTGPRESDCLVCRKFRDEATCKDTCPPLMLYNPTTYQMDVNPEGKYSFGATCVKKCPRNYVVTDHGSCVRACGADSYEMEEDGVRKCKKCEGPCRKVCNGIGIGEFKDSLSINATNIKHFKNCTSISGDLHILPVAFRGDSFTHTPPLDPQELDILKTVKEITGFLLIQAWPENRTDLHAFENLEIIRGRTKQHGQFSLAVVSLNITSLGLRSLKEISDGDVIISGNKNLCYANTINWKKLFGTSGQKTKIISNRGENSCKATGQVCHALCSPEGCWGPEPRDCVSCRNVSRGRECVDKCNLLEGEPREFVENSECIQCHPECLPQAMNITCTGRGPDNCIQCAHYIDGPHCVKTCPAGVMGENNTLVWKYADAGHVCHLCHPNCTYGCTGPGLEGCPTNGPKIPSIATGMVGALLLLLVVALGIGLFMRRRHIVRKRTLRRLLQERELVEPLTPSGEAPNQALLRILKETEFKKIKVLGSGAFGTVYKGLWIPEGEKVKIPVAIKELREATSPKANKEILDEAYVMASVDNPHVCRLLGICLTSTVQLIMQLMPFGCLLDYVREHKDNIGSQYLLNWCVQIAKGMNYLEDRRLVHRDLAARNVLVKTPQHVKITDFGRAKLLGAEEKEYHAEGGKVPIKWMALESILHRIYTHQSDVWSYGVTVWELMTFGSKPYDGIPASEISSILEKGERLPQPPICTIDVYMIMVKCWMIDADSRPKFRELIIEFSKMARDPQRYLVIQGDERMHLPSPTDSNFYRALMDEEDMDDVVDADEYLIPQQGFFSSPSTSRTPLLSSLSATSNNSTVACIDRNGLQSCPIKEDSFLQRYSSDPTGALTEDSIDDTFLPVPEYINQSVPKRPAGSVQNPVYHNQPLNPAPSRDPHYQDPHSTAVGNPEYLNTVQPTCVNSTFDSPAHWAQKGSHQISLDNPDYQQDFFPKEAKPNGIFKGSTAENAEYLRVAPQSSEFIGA

SMILES | IC50 [1] | IC50 [2] | IC50 [3] | IC50 [4] | IC50 [5] | IC50 [6] | IC50 [7] | IC50 [8]
C=CC(=O)N1C[C@H](COc2nc(Nc3cnn(C)c3)nc3[nH]cc(Cl)c23)[C@@H]([C@H](C)O)C1 (single isomer, unassigned) [Example 10] | 80 nM | 1810 nM | > 10000 nM | 1020 nM | > 1000 nM | 100 to 1000 nM | > 1000 nM | 10 to 100 nM
C=CC(=O)N1C[C@H](COc2nc(Nc3cnn(C)c3)nc3[nH]cc(Cl)c23)[C@@H](OC)C1 [Example 9, 1-{(3R,4R)-3-[5-chloro-2-(1-methyl-1H-pyrazol-4-ylamino)-7H-pyrrolo[2,3-d]pyrimidin-4-yloxymethyl]-4-methoxy-pyrrolidin-1-yl}propenone trifluoroacetate] | – | – | – | – | 100 to 1000 nM | 10 to 100 nM | 100 to 1000 nM | < 10 nM
C=CC(=O)Nc1cccc(Oc2nc(Nc3cn(C)nc3C(F)(F)F)nc3[nH]ccc23)c1 [Example 32] | 9 nM | 47 nM | 1340 nM | 98 nM | > 1000 nM | 10 to 100 nM | 10 to 100 nM | < 10 nM
C=CC(=O)Nc1cccc(Oc2nc(Nc3cnn(C)c3)nc3[nH]ccc23)c1 [Example 35] | – | – | – | – | 100 to 1000 nM | < 10 nM | < 10 nM | < 10 nM
C=CC(=O)N1C[C@H](COC)[C@@H](COc2nc(Nc3cnn(C)c3)nc3[nH]cc(Cl)c23)C1 [Example 74] | – | – | – | – | 100 to 1000 nM | 10 to 100 nM | 100 to 1000 nM | 10 to 100 nM
C=CC(=O)Nc1cccc(Oc2nc(Nc3cnn(CCN(C)C)c3)nc3[nH]ccc23)c1 [Example 2, N-(3-{[2-({1-[2-(dimethylamino)ethyl]-1H-pyrazol-4-yl}amino)-7H-pyrrolo[2,3-d]pyrimidin-4-yl]oxy}phenyl)prop-2-enamide] | 11 nM | 141 nM | 2920 nM | 29 nM | 100 to 1000 nM | < 10 nM | < 10 nM | < 10 nM
C=CC(=O)Nc1cccc(Oc2nc(Nc3cnn(C(C)C)c3)nc3[nH]ccc23)c1 [Example 31] | 11 nM | 105 nM | 947 nM | – | > 1000 nM | 10 to 100 nM | 10 to 100 nM | 10 to 100 nM
C=CC(=O)Nc1cccc(Oc2nc(Nc3ccn(C)n3)nc3[nH]cc(Cl)c23)c1 [Example 21] | 13 nM | 202 nM | 7850 nM | 33 nM | > 1000 nM | 10 to 100 nM | 10 to 100 nM | < 10 nM
C=CC(=O)N1C[C@H](COc2nc(Nc3cnn([C@@H]4CCOC4)c3)nc3[nH]cc(Cl)c23)[C@@H](OC)C1 [Example 72] | – | – | – | – | 100 to 1000 nM | 100 to 1000 nM | 100 to 1000 nM | 10 to 100 nM
C=CC(=O)N1CC[C@@H](COc2nc(Nc3cnn(C)c3)nc3[nH]cc(Cl)c23)C1 [Example 64] | – | – | – | – | 10 to 100 nM | < 10 nM | 10 to 100 nM | < 10 nM

Second part, led by results:

IC50 [1] | IC50 [2] | IC50 [3] | IC50 [4] | SMILES | IC50 [5] | IC50 [6] | IC50 [7] | IC50 [8]
20 nM | 143 nM | > 5460 nM | 356 nM | C=CC(=O)N1C[C@@H]2CN(c3nc(Nc4cnn(C)c4)nc4[nH]cc(Cl)c34)C[C@@H]2C1 [Example 71] | 100 to 1000 nM | 10 to 100 nM | 100 to 1000 nM | 10 to 100 nM
69 nM | 3550 nM | > 10000 nM | – | C=CC(=O)N(C)[C@H]1C[C@H](Oc2nc(Nc3cnn(CC(O)CN(C)C)c3)nc3[nH]cc(Cl)c23)C1 (stereo partly drawn) [Example 75] | > 1000 nM | 100 to 1000 nM | 100 to 1000 nM | 10 to 100 nM
42 nM | 208 nM | > 10000 nM | 1060 nM | C=CC(=O)N1C[C@H](COc2nc(Nc3cn(C)nc3CC)nc3[nH]cc(F)c23)[C@@H](OC)C1 [Example 68] | 100 to 1000 nM | 100 to 1000 nM | 100 to 1000 nM | 10 to 100 nM
67 nM | 2010 nM | > 10000 nM | 1220 nM | C=CC(=O)N[C@H]1C[C@H](Oc2nc(Nc3cnn(C)c3)nc3[nH]cc(Cl)c23)C1 [Example 63] | > 1000 nM | > 1000 nM | > 1000 nM | 100 to 1000 nM
37 nM | 490 nM | > 10000 nM | – | C=CC(=O)N1CC(Oc2nc(Nc3cnn(C)c3)nc3[nH]cc(Cl)c23)C1 [Example 105] | 100 to 1000 nM | 100 to 1000 nM | 100 to 1000 nM | 100 to 1000 nM
44 nM | 510 nM | > 10000 nM | 1170 nM | C=CC(=O)N1CC[C@@H](Oc2nc(Nc3cnn(C)c3)nc3[nH]cc(Cl)c23)C1 [Example 65] | 100 to 1000 nM | 100 to 1000 nM | 100 to 1000 nM | 10 to 100 nM
14 nM | 170 nM | 4030 nM | – | C=CC(=O)Nc1cccc(Oc2nc(Nc3cnn(C4CCN(C)C4)c3)nc3[nH]ccc23)c1 (stereo not drawn) [Example 34] | 100 to 1000 nM | < 10 nM | 10 to 100 nM | < 10 nM
20 nM | 99 nM | > 6380 nM | 44 nM | C=CC(=O)Nc1cccc(Oc2nc(Nc3cnn(C)n3)nc3[nH]ccc23)c1 [Example 40] | > 1000 nM | 10 to 100 nM | 10 to 100 nM | < 10 nM
3 nM | 26 nM | 2170 nM | 12 nM | C=CC(=O)Nc1cc(F)cc(Oc2nc(Nc3cnn([C@@H]4CCN(C)C4)c3)nc3[nH]ccc23)c1 [Example 107] | 10 to 100 nM | < 10 nM | 10 to 100 nM | < 10 nM
26 nM | 855 nM | > 10000 nM | – | C=CC(=O)N1CCOC2(CCN(c3nc(Nc4cnn(C)c4)nc4[nH]cc(Cl)c34)C2)C1 (stereo not drawn) [Example 76] | > 1000 nM | 100 to 1000 nM | 100 to 1000 nM | 100 to 1000 nM
